Assay results from patent publication US8609690B2, “Aryl- and heteroarylcarbonyl derivatives of substituted nortropanes, medicaments containing such compounds and their use” (Boehringer Ingelheim International GmbH, priority 2008, dated 2013).

molecular target: T1, 11β-HSD 1 (Homo sapiens, UniProt P28845); assay: In vitro inhibition of 11β-HSD 1, HTRF detection of cortisol generated by human liver microsomes; type: biochemical; details: 1 μM test compound, 100% indicates no inhibition, zero or below zero indicates complete inhibition (relative to carbenoxolone)
T1 construct: detecting cortisol generated from cortisterone by human liver microsomes; from tissue; host or cells: human liver microsomes
T1 sequence (P28845 whole entry): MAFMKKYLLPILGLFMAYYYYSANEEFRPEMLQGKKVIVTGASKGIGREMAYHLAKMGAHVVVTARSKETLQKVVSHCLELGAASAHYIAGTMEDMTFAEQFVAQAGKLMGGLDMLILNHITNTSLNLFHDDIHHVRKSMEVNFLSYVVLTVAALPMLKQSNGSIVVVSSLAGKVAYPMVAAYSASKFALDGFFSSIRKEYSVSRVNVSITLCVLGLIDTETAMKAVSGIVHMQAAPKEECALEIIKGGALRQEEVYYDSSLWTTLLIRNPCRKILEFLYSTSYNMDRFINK
Method: Briefly, compounds were incubated for 1 hour at 37° C. in Tris buffer (20 mM tris, 5 mM EDTA, pH 6.0) containing NADPH (200 μM) and cortisone (80 nM). Cortisol generated in the reaction is then detected with a competitive immunoassay, involving two HTRF conjugates: cortisol linked to XL665 and anti-cortisol antibody labeled with Europium cryptate. The incubation period for detection reaction was typically 2 hours. The amount of cortisol is determined by reading the time-resolved fluorescence of the wells (Ex 320/75 nm; Em 615/8.5 nm and 665/7.5 nm). The ratio of the two emission signals is then calculated (Em665*10000/Em615). […] Each assay also contained a calibration curve with cortisol to transform the fluorescent data into cortisol concentrations. Percent inhibition of each compound was determined relative to the carbenoxolone signal. In Table 2 the 11β-HSD 1 inhibitory activities at 1 μM concentration of test compound, determined as described above, of the compounds listed in Table 3 are compiled, wherein 100% indicates no inhibition and a value of zero or below zero indicates complete inhibition.

Going from `CNC(=O)c1ccc(C(=O)N2[C@@H]3CC[C@H]2C[C@@H](c2ccc(F)cc2)C3)cc1` [Example 79, endo-4-[3-(4-Fluoro-phenyl)-8-aza-bicyclo[3.2.1]octane-8-carbonyl]N-methyl-benzamide] to `CC(=O)Nc1ccc(C(=O)N2[C@@H]3CC[C@H]2C[C@@H](c2ccc(F)cc2)C3)cc1` [Example 115, endo-N-{4-[3-(4-Fluoro-phenyl)-8-aza-bicyclo[3.2.1]octane-8-carbonyl]-phenyl}-acetamide], the “Inhibitory activity on 11β-HSD 1, % CTL” value falls from 90 % CTL to 33 % CTL.

Compared with `O=C(c1cccc(CO)c1)N1[C@@H]2CC[C@H]1C[C@@H](c1ccc(F)cc1)C2` [Example 82, endo-[3-(4-Fluoro-phenyl)-8-aza-bicyclo[3.2.1]oct-8-yl]-(3-hydroxymethyl-phenyl)-methanone], `Cc1cccc(C(=O)N2[C@@H]3CC[C@H]2C[C@@H](c2ccc(F)cc2)C3)c1` [Example 99, endo-[3-(4-Fluoro-phenyl)-8-aza-bicyclo[3.2.1]oct-8-yl]-m-tolyl-methanone] is lower in “Inhibitory activity on 11β-HSD 1, % CTL” value: 5 % CTL for the first, −39 % CTL for the second.

First: CNc1cccc(C(=O)N2[C@@H]3CC[C@H]2C[C@@H](c2ccc(F)cc2)C3)c1 [Example 83, endo-[3-(4-Fluoro-phenyl)-8-aza-bicyclo[3.2.1]oct-8-yl]-(3-methylamino-phenyl)-methanone]
Second: O=C(c1cccc(F)c1)N1[C@@H]2CC[C@H]1C[C@@H](c1ccc(F)cc1)C2 [Example 104, endo-(3-Fluoro-phenyl)-[3-(4-fluoro-phenyl)-8-aza-bicyclo[3.2.1]oct-8-yl]-methanone]
The “Inhibitory activity on 11β-HSD 1, % CTL” value of the first is lower: −30 % CTL for the first, 43 % CTL for the second.

Going from `NC(=O)c1cccc(C(=O)N2[C@@H]3CC[C@H]2C[C@@H](c2ccc(F)cc2)C3)c1` [Example 84, endo-3-[3-(4-Fluoro-phenyl)-8-aza-bicyclo[3.2.1]octane-8-carbonyl]-benzamide] to `N#Cc1cccc(C(=O)N2[C@@H]3CC[C@H]2C[C@@H](c2ccc(F)cc2)C3)c1` [Example 106, endo-3-[3-(4-Fluoro-phenyl)-8-aza-bicyclo[3.2.1]octane-8-carbonyl]-benzonitrile], the “Inhibitory activity on 11β-HSD 1, % CTL” value rises from 41 % CTL to 75 % CTL.

Compared with `O=C(c1ccc(-c2cnco2)cc1)N1[C@@H]2CC[C@H]1C[C@@H](c1ccc(F)cc1)C2` [Example 87, endo-[3-(4-Fluoro-phenyl)-8-aza-bicyclo[3.2.1]oct-8-yl]-(4-oxazol-5-yl-phenyl)-methanone], `O=C(c1cccc(-c2cnco2)c1)N1[C@@H]2CC[C@H]1C[C@@H](c1ccc(F)cc1)C2` [Example 91, endo-[3-(4-Fluoro-phenyl)-8-aza-bicyclo[3.2.1]oct-8-yl]-(3-oxazol-5-yl-phenyl)-methanone] is higher in “Inhibitory activity on 11β-HSD 1, % CTL” value: −2 % CTL for the first, 69 % CTL for the second.

Going from `Cc1nc(-c2cccc(C(=O)N3[C@@H]4CC[C@H]3C[C@@H](c3ccc(F)cc3)C4)c2)no1` [Example 88, endo-[3-(4-Fluoro-phenyl)-8-aza-bicyclo[3.2.1]oct-8-yl]-[3-(5-methyl-[1,2,4]oxadiazol-3-yl)-phenyl]-methanone] to `COc1cccc(C(=O)N2[C@@H]3CC[C@H]2C[C@@H](c2ccc(F)cc2)C3)c1` [Example 109, endo-[3-(4-Fluoro-phenyl)-8-aza-bicyclo[3.2.1]oct-8-yl]-(3-methoxy-phenyl)-methanone], the “Inhibitory activity on 11β-HSD 1, % CTL” value falls from 98 % CTL to −33 % CTL.

Compared with `O=C(c1cccc(-c2cc[nH]n2)c1)N1[C@@H]2CC[C@H]1C[C@@H](c1ccc(F)cc1)C2` [Example 90, endo-[3-(4-Fluoro-phenyl)-8-aza-bicyclo[3.2.1]oct-8-yl]-[3-(1H-pyrazol-3-yl)-phenyl]-methanone], `O=C(c1ccc2[nH]ccc2c1)N1[C@@H]2CC[C@H]1C[C@@H](c1ccc(F)cc1)C2` [Example 113, endo-[3-(4-Fluoro-phenyl)-8-aza-bicyclo[3.2.1]oct-8-yl]-(1H-indol-5-yl)-methanone] is lower in “Inhibitory activity on 11β-HSD 1, % CTL” value: 42 % CTL for the first, −23 % CTL for the second.

Compared with `O=C(c1ccc2scnc2c1)N1[C@@H]2CC[C@H]1C[C@@H](c1ccc(F)cc1)C2` [Example 93, endo-Benzothiazol-5-yl-[3-(4-fluoro-phenyl)-8-aza-bicyclo[3.2.1]oct-8-yl]-methanone], `O=C(c1ccc2ncsc2c1)N1[C@@H]2CC[C@H]1C[C@@H](c1ccc(F)cc1)C2` [Example 94, endo-Benzothiazol-6-yl-[3-(4-fluoro-phenyl)-8-aza-bicyclo[3.2.1]oct-8-yl]-methanone] is lower in “Inhibitory activity on 11β-HSD 1, % CTL” value: 38 % CTL for the first, 12 % CTL for the second.

Going from `O=C1NCc2cccc(C(=O)N3[C@@H]4CC[C@H]3C[C@@H](c3ccc(F)cc3)C4)c21` [Example 95, endo-7-[3-(4-Fluoro-phenyl)-8-aza-bicyclo[3.2.1]octane-8-carbonyl]-2,3-dihydro-isoindol-1-one] to `Cc1ccccc1C(=O)N1[C@@H]2CC[C@H]1C[C@@H](c1ccc(F)cc1)C2` [Example 100, endo-[3-(4-Fluoro-phenyl)-8-aza-bicyclo[3.2.1]oct-8-yl]-o-tolyl-methanone], the “Inhibitory activity on 11β-HSD 1, % CTL” value falls from 92 % CTL to 61 % CTL.

First: O=C(c1ccccc1)N1[C@@H]2CC[C@H]1C[C@@H](c1ccc(F)cc1)C2 [Example 96, endo-[3-(4-Fluoro-phenyl)-8-aza-bicyclo[3.2.1]oct-8-yl]-phenyl-methanone]
Second: O=C(c1ccccc1Cl)N1[C@@H]2CC[C@H]1C[C@@H](c1ccc(F)cc1)C2 [Example 111, endo-(2-Chloro-phenyl)-[3-(4-fluoro-phenyl)-8-aza-bicyclo[3.2.1]oct-8-yl]-methanone]
The “Inhibitory activity on 11β-HSD 1, % CTL” value of the first is lower: 33 % CTL for the first, 61 % CTL for the second.

Compared with `Cc1ccc(C(=O)N2[C@@H]3CC[C@H]2C[C@@H](c2ccc(F)cc2)C3)cc1` [Example 101, endo-[3-(4-Fluoro-phenyl)-8-aza-bicyclo[3.2.1]oct-8-yl]-p-tolyl-methanone], `O=C(c1ccc(F)cc1)N1[C@@H]2CC[C@H]1C[C@@H](c1ccc(F)cc1)C2` [Example 103, endo-(4-Fluoro-phenyl)-[3-(4-fluoro-phenyl)-8-aza-bicyclo[3.2.1]oct-8-yl]-methanone] is higher in “Inhibitory activity on 11β-HSD 1, % CTL” value: 4 % CTL for the first, 32 % CTL for the second.

Compared with `O=C(c1ccc(O)nc1)N1[C@@H]2CC[C@H]1C[C@@H](c1ccc(F)cc1)C2` [Example 102, endo-[3-(4-Fluoro-phenyl)-8-aza-bicyclo[3.2.1]oct-8-yl]-(6-hydroxy-pyridin-3-yl)-methanone], `O=C(c1ccc(Cl)cc1)N1[C@@H]2CC[C@H]1C[C@@H](c1ccc(F)cc1)C2` [Example 112, endo-(4-Chloro-phenyl)-[3-(4-fluoro-phenyl)-8-aza-bicyclo[3.2.1]oct-8-yl]-methanone] is lower in “Inhibitory activity on 11β-HSD 1, % CTL” value: 47 % CTL for the first, 40 % CTL for the second.

First: N#Cc1ccc(C(=O)N2[C@@H]3CC[C@H]2C[C@@H](c2ccc(F)cc2)C3)cc1 [Example 105, endo-4-[3-(4-Fluoro-phenyl)-8-aza-bicyclo[3.2.1]octane-8-carbonyl]-benzonitrile]
Second: COc1ccc(C(=O)N2[C@@H]3CC[C@H]2C[C@@H](c2ccc(F)cc2)C3)cc1 [Example 108, endo-[3-(4-Fluoro-phenyl)-8-aza-bicyclo[3.2.1]oct-8-yl]-(4-methoxy-phenyl)-methanone]
The “Inhibitory activity on 11β-HSD 1, % CTL” value of the first is higher: 58 % CTL for the first, 1 % CTL for the second.

First: Cc1ccc(C(=O)N2[C@@H]3CC[C@H]2C[C@@H](c2ccc(F)cc2)C3)cc1C [Example 107, endo-(3,4-Dimethyl-phenyl)-[3-(4-fluoro-phenyl)-8-aza-bicyclo[3.2.1]oct-8-yl]-methanone]
Second: COc1ccc(C(=O)N2[C@@H]3CC[C@H]2C[C@@H](c2ccc(F)cc2)C3)cc1OC [Example 118, endo-(3,4-Dimethoxy-phenyl)-[3-(4-fluoro-phenyl)-8-aza-bicyclo[3.2.1]oct-8-yl]-methanone]
The “Inhibitory activity on 11β-HSD 1, % CTL” value of the first is lower: −38 % CTL for the first, −28 % CTL for the second.

Compared with `COc1ccccc1C(=O)N1[C@@H]2CC[C@H]1C[C@@H](c1ccc(F)cc1)C2` [Example 110, endo-[3-(4-Fluoro-phenyl)-8-aza-bicyclo[3.2.1]oct-8-yl]-(2-methoxy-phenyl)-methanone], `COc1ccc(C(=O)N2[C@@H]3CC[C@H]2C[C@@H](c2ccc(F)cc2)C3)c(OC)c1` [Example 117, endo-(2,4-Dimethoxy-phenyl)-[3-(4-fluoro-phenyl)-8-aza-bicyclo[3.2.1]oct-8-yl]-methanone] is lower in “Inhibitory activity on 11β-HSD 1, % CTL” value: 87 % CTL for the first, 53 % CTL for the second.

For `O=C(c1ccc2c(c1)OCO2)N1[C@@H]2CC[C@H]1C[C@@H](c1ccc(F)cc1)C2` [Example 114, endo-Benzo[1,3]dioxol-5-yl-[3-(4-fluoro-phenyl)-8-aza-bicyclo[3.2.1]oct-8-yl]-methanone], the “Inhibitory activity on 11β-HSD 1, % CTL” value was −10 % CTL.

same assay, conditions: 1 μM test compound, 100% indicates no inhibition, zero or below zero indicates complete inhibition (relative to carbenoxolone), 1 µM

First: NC(=O)c1ccc(C(=O)N2[C@@H]3CC[C@H]2C[C@@H](c2ccc(F)cc2)C3)cc1 [Example 81, endo-4-[3-(4-Fluoro-phenyl)-8-aza-bicyclo[3.2.1]octane-8-carbonyl]-benzamide]
Second: O=C(c1ccccn1)N1[C@@H]2CC[C@H]1C[C@@H](c1ccc(F)cc1)C2 [Example 98, endo-[3-(4-Fluoro-phenyl)-8-aza-bicyclo[3.2.1]oct-8-yl]-pyridin-2-yl-methanone]
The “Inhibitory activity on 11β-HSD 1, % CTL” value of the first is lower: −9 % CTL for the first, 74 % CTL for the second.
